The values that follow come from US5834487A, “Inhibition of 26S and 20S proteasome by indanones” (CV Therapeutics, priority 1996, dated 1998).

For orientation: IC50 means the concentration that gives 50% inhibition. Higher therefore signals a need for much substance. One may read the Ki as the equilibrium dissociation constant of an inhibitor or competing ligand from its target.

One experiment relates to Panc-I cells. The experiment can be described thus: Celltiter 96 Aqueous cell proliferation assay, Panc-I. The class given is cell-based. The settings on record: 18 hours with compound. The protocol: (§1) Compounds prepared according to the method of Example 1 were assayed against several different cell lines. Cell monolayers were cultured in the presence of test compound for 18 hours to access their ability to inhibit cell proliferation. Cell proliferation was determined colorimetrically using the Celltiter 96 Aqueous non-radioactive cell proliferation assay (Promega) where cell proliferation is directly proportional to absorbance at 490 nm. Results are quoted as the IC50 in μg/ml for inhibition of cell proliferation in various cell types.

For experiment [1], the system named is LPS induced TNF synthesis. Kind of experiment: Inhibition of LPS induced TNF synthesis in RAW cells (ELISA). The class given is cell-based. The settings on record: 1 hour pretreatment, LPS 100 ng/ml, supernatant after 1 hour. The procedure: Compounds prepared according to the method of Example 1 were tested for the inhibition of LPS induced TNF synthesis. RAW cells were pretreated with different concentrations of test compound for 1 hour prior to the administration of lipopolysaccharide (100 ng/mi). Cell culture supernatants were harvested after 1 hour and assayed for TNF concentration by ELISA (Biosource)

For another experiment, the system named is RAW cells. Kind of experiment: Celltiter 96 Aqueous cell proliferation assay, RAW. In kind it is cell-based. The settings on record: 18 hours with compound. The procedure:
as §1

Experiment [2] concerns the target T1, 20S catalytic subunit of the proteasome (multicatalytic proteinase complex) (Bos taurus, UniProt Q32KL2).
T1 construct: was purified to homogeneity from bovine brain according to published methods; from tissue; host or cells: bovine brain
Kind of experiment: 20S proteasome chymotryptic activity, fluorogenic peptide cleavage. The class given is biochemical, bovine. The settings on record: 50 μM succinyl-leu-leu-val-tyr-7-amino-4-methyl coumarin, 15 minutes at 37° C, pH7.5. The method, boiled down: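 Purified bovine-brain 20S proteasome (2 μg) with 0.1-100 μg/ml inhibitor in 50 mM HEPES, 0.1% SDS, pH 7.5. Reaction started with 50 μM Suc-LLVY-AMC, 15 min at 37° C, stopped with pH 4.0 acetate; liberated AMC read by fluorescence (ex 370, em 430 nm).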

Another experiment deals with OVCAR cells. The experiment can be described thus: Celltiter 96 Aqueous cell proliferation assay, OVCAR. In kind it is cell-based. The settings on record: 18 hours with compound. The protocol:
as §1

Experiment [3] has as its target T2, chymotrypsin-like activity associated with the proteasome (Homo sapiens, UniProt P28074).
T2 sequence (P28074 60-263): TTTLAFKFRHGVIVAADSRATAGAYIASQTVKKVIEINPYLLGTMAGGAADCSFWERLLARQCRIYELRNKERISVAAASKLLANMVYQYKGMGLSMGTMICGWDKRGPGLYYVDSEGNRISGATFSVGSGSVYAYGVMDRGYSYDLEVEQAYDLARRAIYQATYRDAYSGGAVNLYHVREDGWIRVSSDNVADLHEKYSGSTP
The settings on record: cited from earlier work.

Values after ≈ are worked out from the molar mass of the structure shown. Read-outs that look alike come from different tables or passages of the source. Non-standard residues stand in square brackets, D forms with d. Residues, ends and D or L forms follow the SMILES beside them. *: point of attachment. Nva = CCC[C@H](N)C(=O)O; Cbz = O=C(OCc1ccccc1)* Where only a bound is given, the exact number is not on record here.

Turning to `COc1ccc2c(c1)C(CC(=O)NC(CC(C)C)C(=O)NC(CC(C)C)C(=O)NCc1ccc3c(c1)OCO3)CC2=O` (mixture of isomers) [Compound 197], the “IC50 for inhibition of cell proliferation, Panc-I” value (“IC50 for inhibition … Panc-I” for short) with Panc-I cells amounted to 8 mg/L. For the same compound, in experiment [1], the “IC50 inhibition of LPS induced TNF synthesis” value (shortened to “IC50 inhibition”) was 3 mg/L. Further, the “IC50 for inhibition of cell proliferation, RAW” value (shortened to “IC50 for inhibition … RAW”) in the experiment on RAW cells came to 12 mg/L. In experiment [2], the IC50 came to 0.2 mg/L. Besides, the “IC50 for inhibition of cell proliferation, OVCAR” value (“IC50 for inhibition … OVCAR” for short) in the experiment with OVCAR cells worked out at 2 mg/L.

Take `CSCC[C@@H](C=O)NC(=O)[C@H](CC(C)C)NC(=O)[C@H](CC(C)C)NC(C)=O` [LLM, N-acetyl-L-leucinyl-L-leucinyl-methional] (Ac-Leu-Leu-Met-aldehyde): the Ki in experiment [3] (literature values) is 0.14 µM.

As to `COc1ccc2c(c1)C(CC(=O)NC(CC(C)C)C(=O)NC(CC(C)C)C(=O)NCc1c(F)cccc1F)CC2=O` (mixture of isomers) [Compound 196], in the experiment with Panc-I cells, the “IC50 for inhibition … Panc-I” value was 8 mg/L. Moreover, the “IC50 inhibition” value in experiment [1] worked out at 3 mg/L. For the same compound, the “IC50 for inhibition … RAW” value with RAW cells stood at 7 mg/L. Moreover, in experiment [2], the IC50 was 0.08 mg/L. The “IC50 for inhibition … OVCAR” value in the experiment on OVCAR cells was 2 mg/L.

Take `COc1ccc(CNC(=O)C(CC(C)C)NC(=O)C(CC(C)C)NC(=O)CC2CC(=O)c3ccc(OC)cc32)cc1` (mixture of isomers) [Compound 194]: the “IC50 for inhibition … Panc-I” value in the experiment with Panc-I cells came to 8 mg/L. In experiment [1], the “IC50 inhibition” value is 3 mg/L. For the same compound, the “IC50 for inhibition … RAW” value in the experiment with RAW cells is 1 mg/L. In experiment [2], this compound came in with an IC50 of more than 10 mg/L. Besides, the “IC50 for inhibition … OVCAR” value in the experiment with OVCAR cells stood at 3 mg/L.

In the case of `CCC[C@@H](C=O)NC(=O)[C@H](CC(C)C)NC(=O)[C@H](CC(C)C)NC(=O)OCc1ccccc1` [MG 115, N-carbobenzoxyl-L-leucinyl-L-leucinyl-L-norvalinal] (Cbz-Leu-Leu-[Nva]-aldehyde), the Ki in experiment [3] (literature value) is 0.021 µM.

Regarding `CCCC(NC(=O)CC1CC(=O)c2ccc(OC)cc21)C(=O)NC(CC(C)C)C(=O)NCC(N)=O` (mixture of isomers) [Compound 44], the IC50 in experiment [2] was more than 10 mg/L.

Regarding `COc1ccc2c(c1)C(CC(=O)NC(CC(C)C)C(=O)NC(CCC(N)=O)C(N)=O)CC2=O` (mixture of isomers) [Compound 137], the IC50 in experiment [2] was more than 10 mg/L.

The compound `COc1ccc2c(c1)C(CC(=O)NC(Cc1ccccc1)C(=O)NC(CC(C)C)C(N)=O)CC2=O` (mixture of isomers) [Compound 27] showed a half-inhibitory concentration (IC50) in experiment [2] of 10 mg/L.

The compound `COc1ccc2c(c1)C(CC(=O)N(c1ccc(O)cc1)c1ccc3ccccc3c1)CC2=O` (stereo not shown) [Compound 144] showed an IC50 in experiment [2] of more than 10 mg/L.

Regarding `COc1ccc2c(c1)C(CC(=O)NC1CCCC1)CC2=O` (stereo not shown) [Compound 74], the IC50 in experiment [2] is more than 10 mg/L.

Turning to `COCCN(CCOC)C(=O)CC1CC(=O)c2ccc(OC)cc21` (stereo not shown) [Compound 79], in experiment [2], the IC50 was more than 10 mg/L.

With `COc1ccc2c(c1)C(CC(=O)N1CCCCC1)CC2=O` (stereo not shown) [Compound 67], the IC50 in experiment [2] is more than 10 mg/L.

In experiment [2], `COc1ccc2c(c1)C(CC(=O)N[C@@H](CC(C)C)C(=O)N[C@H](CC(C)C)C(=O)NCC(N)=O)CC2=O` (single isomer, unassigned) [Compound 51] had an IC50 of 0.5 mg/L (≈ 0.995 µM).

For the compound `COCCNC(=O)CC1CC(=O)c2ccc(OC)cc21` (stereo not shown) [Compound 117], in experiment [2], the IC50 is more than 10 mg/L.

In experiment [2], `COc1ccc2c(c1)C(CC(=O)NC(CC(C)C)C(=O)NC(CC(C)C)C(=O)O)CC2=O` (mixture of isomers) [Compound 171] gave an IC50 of more than 10 mg/L.

On to `COc1ccc2c(c1)C(CC(=O)NC(C(N)=O)c1ccccc1)CC2=O` (mixture of isomers) [Compound 36], for which the IC50 in experiment [2] was more than 10 mg/L.

`COc1ccc(NC(=O)CC2CC(=O)c3ccc(OC)cc32)cc1` (stereo not shown) [Compound 121]: in experiment [2], the IC50 was more than 10 mg/L.

As for `COc1ccc2c(c1)C(CC(=O)N1CCCC1CO)CC2=O` (stereo not shown) [Compound 119], in experiment [2], the IC50 was more than 10 mg/L.

`COc1ccc2c(c1)C(CC(=O)N1CCC(O)CC1)CC2=O` (stereo not shown) [Compound 81]: in experiment [2], the IC50 was more than 10 mg/L.

With `COc1ccc2c(c1)C(CC(=O)NC(CC(C)C)C(=O)NC(CCC(=O)O)C(N)=O)CC2=O` (mixture of isomers) [Compound 133], the IC50 in experiment [2] is more than 10 mg/L.

On to `COc1ccc2c(c1)C(CC(=O)Nc1nc(O)c(C)c(O)n1)CC2=O` (stereo not shown) [Compound 145], for which the IC50 in experiment [2] was more than 10 mg/L.

`COc1ccc2c(c1)C(CC(=O)NC(CC(C)C)C(=O)NC(CC(C)C)C(=O)NCCc1ccccc1)CC2=O` (mixture of isomers) [Compound 185] had an IC50 in experiment [2] of more than 10 mg/L.

With `COc1ccc2c(c1)C(CC(=O)NC(CC(C)C)C(=O)NC(CC(C)C)C(=O)NC(C)C(N)=O)CC2=O` (mixture of isomers) [Compound 126], the IC50 in experiment [2] was more than 10 mg/L.

For the compound `COc1ccc2c(c1)C(CC(=O)N1CCc3ccccc31)CC2=O` (stereo not shown) [Compound 77], in experiment [2], the 50% inhibitory concentration (IC50) was more than 10 mg/L.

`CCCC(NC(=O)CC1CC(=O)c2ccc(OC)cc21)C(N)=O` (mixture of isomers) [Compound 10]: in experiment [2], the IC50 is more than 10 mg/L.

For the compound `COc1ccc2c(c1)C(CC(=O)NC(CC(C)C)C(=O)NC(CC(C)C)C(=O)N(Cc1ccccc1)Cc1ccccc1)CC2=O` (mixture of isomers) [Compound 177], in experiment [2], the IC50 worked out at 1 mg/L.

For `COc1ccc2c(c1)C(CC(=O)NC(CC1CCCCC1)C(=O)NC(CC(C)C)C(=O)NCC(N)=O)CC2=O` (mixture of isomers) [Compound 46], in experiment [2], the IC50 is more than 10 mg/L.

For the compound `COc1ccc2c(c1)C(CC(=O)N[C@@H](CC(C)C)C(=O)N[C@@H](C(=O)NCC(N)=O)c1ccccc1)CC2=O` (stereo partly shown) [Compound 91], the IC50 in experiment [2] turned out to be 10 mg/L (≈ 19.1 µM).

“N-acetyl-L-leucinyl-L-leucinal-L-norleucinal [ALLN]”: the Ki in experiment [3] (literature values) was 0.14 µM.

The compound `COc1ccc2c(c1)C(CC(=O)NCCCCCCN)CC2=O` (stereo not shown) [Compound 150] showed an IC50 in experiment [2] of more than 10 mg/L.

In experiment [2], `COc1ccc2c(c1)C(CC(=O)NC(CC(C)C)C(=O)N(Cc1ccccc1)Cc1ccccc1)CC2=O` (mixture of isomers) [Compound 199] returned an IC50 of more than 10 mg/L.
